# How the values were obtained:
# Solubility in chloroform = format: physicochemical; conditions: organic solvent or mixture
# Description: (§1) For the absorption characteristic of such compounds, absorption spectra were measured by use of a near infrared photospectrometer to confirm that they could be utilized as materials for the optical switch operating at a wavelength of 1.3 μm. Further, for the thermal stability, the thermal decomposition temperature was measured by thermogravimetry and differential thermal analysis to confirm that they were thermally stable materials for the optical switch. Further, their solubility in organic solvents such as chloroform and acetone was confirmed.
# [1] = Thermal decomposition temperature by thermogravimetry and differential thermal analysis; format: physicochemical
# Description: as §1
Compound,solubility (Solubility in chloroform),decomposition temperature (thermal stability) [1]
CC(C)CN(CC(C)C)c1cc(O)c2c(c1)OC(=O)/C2=C(/[O-])C1=C2C(O)=CC(=[N+](CC(C)C)CC(C)C)C=C2OC1=O [Compound (1)],54 mg/mL,202.7 °C
CCN(CC)c1cc(O)c2c(c1)OC(=O)/C2=C(/[O-])C1=C2C(O)=CC(=[N+](CC)CC)C=C2OC1=O [Compound (2)],3 mg/mL,≥ 200 °C
